{
  "source": "patent US10570178B2",
  "about": "“Selective delivery molecules and methods of use” (Avelas Biosciences, Inc., priority 2011, dated 2020)",
  "key": {"[1]": {"tested_on": "HT-1080 tumor homogenates", "assay": "Fluorogenic response from tumor homogenates (gel electrophoresis)", "type": "biochemical, mouse", "description": "FIG. 4 exemplifies fluorescence enhancement of selective delivery molecule SDM-10 upon cleavage by tumor homogenates. Selective delivery molecule 10 (SDM-10) was cleaved with HT-1080 tumor homogenates. 1 nM MMP-9 or 10 uL tumor tissue homogenates (TH2 and TH3) were mixed with 1 uM […] in 100 uL buffer for 24 h at 37° C. GM6001 is a general broad spectrum inhibitor of MMPs. […] Uncleaved SDM-10 is nonfluorescent due to efficient quenching (second column from left).\nHT1080 cells (Cat. # CCL-121; American Type Culture Collection, Va., USA) were grown under exponential growth conditions in humidified atmosphere of 5% CO2 in air at 37° C. until reaching 80-100% confluence before harvesting for mouse implantation. Each nude mouse was hand restrained and injected with 2×10^6 HT-1080 cells into the mammary fat pad using a 25-G needle. HT-1080 tumors were harvested when they had reached 100-200 mm^3 in size (typically 1-2 weeks post-tumor cells implantation).\nHT-1080 tumors were homogenized using ultrasonic disruption. 1 nM MMP-9 or 10 μl, tumor tissue homogenates (TH2 and TH3) were mixed with 1 μM SDM-10 in 100 μL buffer for 24 h at 37° C. Selective delivery molecule 6 was used as a fluorescent control of similar size to intact SDM-10. The samples were loaded on a polyacrylamide gel and separated using electrophoresis. […] GM6001 is a general broad spectrum inhibitor of MMPs."}, "[2]": {"target": "T1, matrix metalloproteinase-2 (MMP-2) (Homo sapiens, UniProt P08253)", "T1 sequence (P08253 110-660)": "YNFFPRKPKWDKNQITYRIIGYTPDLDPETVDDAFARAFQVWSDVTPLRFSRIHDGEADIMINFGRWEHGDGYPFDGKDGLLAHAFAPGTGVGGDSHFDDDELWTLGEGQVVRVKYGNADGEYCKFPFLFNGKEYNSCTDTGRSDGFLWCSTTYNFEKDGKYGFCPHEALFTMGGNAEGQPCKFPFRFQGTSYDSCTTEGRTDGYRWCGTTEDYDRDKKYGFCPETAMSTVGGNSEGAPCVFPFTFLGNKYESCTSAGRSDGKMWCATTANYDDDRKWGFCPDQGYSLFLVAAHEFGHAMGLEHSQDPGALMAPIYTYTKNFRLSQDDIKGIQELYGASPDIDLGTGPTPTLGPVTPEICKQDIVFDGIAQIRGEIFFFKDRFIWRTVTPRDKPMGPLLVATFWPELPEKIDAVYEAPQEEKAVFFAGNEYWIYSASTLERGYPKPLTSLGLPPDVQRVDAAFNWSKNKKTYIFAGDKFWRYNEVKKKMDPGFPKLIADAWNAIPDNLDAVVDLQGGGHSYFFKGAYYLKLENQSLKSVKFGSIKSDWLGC", "assay": "Enzyme dependent fluorescence enhancement and color change: cleavage of FRET SDM by MMP-2", "type": "biochemical", "conditions": "1 μM SDM", "description": "FIG. 2 exemplifies ratiometric fluorescence changes of selective delivery molecules. In this figure, SDM-9 was cleaved with 1 nM MMP-2 enzyme. The increase of donor (left panel) and decrease in acceptor (right panel) fluorescence is indicative of decreased FRET after peptide cleavage.\nSelective delivery molecule 9 was dissolved in TCNB buffer (50 mM Tris, pH 7.5, with 10 mM calcium chloride, 150 mM sodium chloride, and 0.05% BRIJ 35) at room temperature at 1 μM. Fluorescence spectra were recorded on F-2500 fluorescence spectrometer. The Cy5 fluorescence donor was excited using 625 nm light and the emission was scanned from 660 to 800 nm. Peptide cleavage was initiated with addition of matrix metalloproteinase-2 (MMP-2) at a final concentration of 1 nM. The cleavage reaction was complete within 2 hour and the fluorescence spectra indicated FRET disruption and a large 8-fold increase the Cy5 donor emission and 2-fold decrease in the Cy7 emission. The actual intrinsic fluorescence decrease of Cy7 is larger however it is masked by the Cy5 long wavelength shoulder."}, "HT-1080 xenograft model": {"tested_on": "HT-1080 xenograft model", "assay": "In vivo imaging assay for tumor contrast", "design": "species or system mouse", "description": "HT-1080 xenograft model was generated as described in Example 14 and used to evaluate the ability of molecules to provide in vivo tumor fluorescence contrast compared to surrounding tissue. Fluorescent conjugates were tested in HT-1080 tumor-bearing mice once the tumors had reached 100-200 mm^3 in size (typically 1-2 weeks post-tumor cells implantation). Conscious HT-1080 tumor-bearing mice were restrained using a rotating tail injector (Cat. # RTI; Braintree Scientific, MA, USA) and dosed intravenously (tail vein) with the test compound at between 0.1 and 5 nanomoles per mouse in 100 uL saline solution. In preparation for imaging, mice were lightly anesthetized with a mixture of ketamine/xylazine (Cat. # K-113; Sigma, Aldrich, Mo., USA) given intraperitoneally (1 μL/gram body weight) to minimize movement.\nSerial whole-body imaging (tumor included) was done using a whole-animal fluorescent visualization imaging system or Olympus stereo fluorescent microscope. The mice were positioned on their backs and imaging was performed from the top to image the ventral side of the animal. […] Contrast was calculated using the following equation: Contrast=(Fluorescence intensity of tumor−Fluorescence intensity of contralateral chest tissue)/Intensity of contralateral chest tissue).\nContrast greater than 0.4 in the whole animal is easily detected by eye in the whole animal image and is good contrast. […]"}, "[3]": {"tested_on": "Murine 4T1 tumor model, metastatic cervical lymph nodes", "assay": "In vivo detection of cancer metastases to lymph node, emission ratio contrast", "design": "species or system mouse", "conditions": "metastatic vs non-metastatic lymph nodes, peritumoral administration"}, "MMP-9": {"target": "MMP-9 (Homo sapiens, UniProt P14780)", "sequence (P14780 94-707)": "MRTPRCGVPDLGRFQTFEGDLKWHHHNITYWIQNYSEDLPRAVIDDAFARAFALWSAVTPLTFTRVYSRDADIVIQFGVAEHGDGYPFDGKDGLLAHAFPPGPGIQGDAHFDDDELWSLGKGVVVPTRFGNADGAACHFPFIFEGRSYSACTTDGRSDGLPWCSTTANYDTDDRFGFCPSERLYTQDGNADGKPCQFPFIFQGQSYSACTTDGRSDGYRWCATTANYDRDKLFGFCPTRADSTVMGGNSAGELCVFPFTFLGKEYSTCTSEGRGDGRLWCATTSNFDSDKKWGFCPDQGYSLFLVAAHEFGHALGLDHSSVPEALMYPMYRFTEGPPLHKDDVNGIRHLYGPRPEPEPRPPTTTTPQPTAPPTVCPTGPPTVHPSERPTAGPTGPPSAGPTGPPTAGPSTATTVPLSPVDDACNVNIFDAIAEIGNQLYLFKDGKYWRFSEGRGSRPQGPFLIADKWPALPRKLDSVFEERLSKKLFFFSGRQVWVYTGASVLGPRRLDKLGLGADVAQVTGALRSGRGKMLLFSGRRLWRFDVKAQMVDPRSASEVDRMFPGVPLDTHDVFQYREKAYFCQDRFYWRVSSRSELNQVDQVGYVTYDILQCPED", "assay": "Enzyme dependent fluorescence enhancement: cleavage of quenched SDM by MMP-9", "type": "biochemical", "conditions": "1 μM SDM", "description": "FIG. 3 exemplifies fluorescence enhancement of selective delivery molecules after protease cleavage. SDM-10 was cleaved with 1 nM MMP-9 enzyme in buffered saline. The Cy5 fluorescence increases >100 fold after peptide cleavage because the quencher dyes is no longer intramolecularly attached to Cy5 and it can no longer efficiently quench Cy5.\nSelective delivery molecule 10 was dissolved in TCNB buffer (pH 7.5) at room temperature at 1 μM. Fluorescence spectra were recorded on F-2500 fluorescence spectrometer. Excitation of the Cy5 fluorescence donor was excited at 625 nm and the emission was measured at 669 nm. Peptide cleavage was initiated with addition of MMP-9 at a final concentration of 1 nM. The cleavage reaction was complete within 2 hour and the fluorescence was enhanced >100-fold upon protease cleavage, FIG. 3."}, "[4]": {"conditions": "1 nM MMP-2, TCNB buffer pH 7.5, excitation 625 nm"}},
  "note": "Numbered stars: 1 amine (or outer) side, 2 acyl side, 3 side chain; on linkers, the order of the positions; unused ones are H or OH. Square brackets hold non-standard residues; d marks the D form. Ends that are not written are not given here. Cys(Me) = S-methyl-cysteine, CSC[C@H](N[*:1])C(=O)[*:2]; Phe(4-Ac) = CC(=O)c1ccc(C[C@H](N)C(=O)O)cc1; AEA = NCCOCC(=O)O",
  "data": [
    {"compound": "CNC(=O)[C@H](Cc1c[nH]c2ccccc12)NC(=O)[C@@H](CC(=O)NO)CC(C)C", "note": "[GM6001, reference compound]", "values": [
      {"measurement": "effect on tumor homogenate cleavage of SDM-10", "setting": "[1]; MMP inhibitor added to HT-1080 homogenate with SDM-10", "result": "inhibits cleavage"}
    ]},
    {"compound": "SDM-9: prepared analogously to SDM-25 from peptide P-3; Cy5 donor and Cy7 FRET acceptor ([dE][dE][dE][dE][dE][Phe(4-Ac)][AEA]PLG[Cys(Me)]AG[dR][dR][dR][dR][dR][dR][dR][dR][dC]-NH2; not fully specified (some residues, N-terminus))", "values": [
      {"measurement": "decrease in Cy7 emission after cleavage", "setting": "[2]; [4]", "result": 2, "unit": "fold"},
      {"measurement": "increase in Cy5 donor emission after cleavage", "setting": "[2]; [4]", "result": 8, "unit": "fold"},
      {"measurement": "time to complete cleavage reaction", "setting": "[2]; 1 nM MMP-2, room temperature", "result": "≤ 2", "unit": "h"},
      {"measurement": "Time to maximum contrast", "setting": "HT-1080 xenograft model; HT-1080 xenograft, IV dosing", "result": "Fast (4 < fast < 12)"},
      {"measurement": "Maximum Contrast", "setting": "HT-1080 xenograft model; tumor vs contralateral chest tissue fluorescence, IV 0.1-5 nanomoles per mouse, imaged 1-24 hours after injection", "result": "High (≥0.9 = high)"},
      {"measurement": "Peritumor Maximum Contrast", "setting": "[3]", "result": "Low (Low <20%)"}
    ]},
    {"compound": "SDM-10: prepared analogously to SDM-25 from peptide P-3; Cy5 fluorophore with dye quencher ([dE][dE][dE][dE][dE][Phe(4-Ac)][AEA]PLG[Cys(Me)]AG[dR][dR][dR][dR][dR][dR][dR][dR][dC]-NH2; numbers in words are those of the source; also: Cy5 fluorophore, quencher dye and mPEG carrier attached, sites not given here)", "values": [
      {"measurement": "Cy5 fluorescence enhancement upon protease cleavage", "setting": "MMP-9; 1 nM MMP-9, excitation 625 nm, emission 669 nm", "result": "> 100", "unit": "fold"},
      {"measurement": "time to complete cleavage reaction", "setting": "MMP-9; 1 nM MMP-9, room temperature", "result": "≤ 2", "unit": "h"},
      {"measurement": "cleavage by HT-1080 tumor homogenates", "setting": "[1]; 1 μM SDM, 10 μL homogenate in 100 μL buffer, 24 h, 37° C.", "result": "cleaved and becomes highly fluorescent"},
      {"measurement": "fluorescence of intact, uncleaved form on gel", "setting": "[1]; polyacrylamide gel", "result": "essentially non-fluorescent"}
    ]}
  ]
}
